Tests used:
HSV-1 helicase-primase = molecular target: T1, HSV-1 helicase-primase (Human herpesvirus 1, UniProt P10189+P10236); assay: HSV-1 DNA-dependent ATPase assay (inhibition of HSV-1 helicase-primase); assay type: biochemical
T1 construct: made in house; host or cells: Sf21 insect cells triply infected with recombinant baculoviruses (UL5, UL8, UL52)
Text: A) HSV-1 DNA-Dependent ATP Assay (an in Vitro Assay Based on the Inhibition of HSV-1 Helicase-primase).
HSV-1 helicase-primase holoenzyme was produced in triply infected Sf21 cells using recombinant baculoviruses expressing the UL5, UL8 and UL52 helicase-primase subunits, as described by S. Dracheva et al., J. Biol. Chem. 1995, 270, 14148. The crude enzyme was purified by ammonium sulfate precipitation, Source 15Q® chromatography and Sephacryl® S-300 HR gel filtration (both purification systems can be obtained from Pharmacia Biotech Inc., Montreal, Quebec, Canada), see S. Dracheva et al., supra.
The DNA-dependent ATPase assay, described by J. J. Crute et al., Nucleic Acids Res. 1988, 16, 6585, was modified and used to evaluate the capability of the compounds of Group 1-formula 1 to inhibit HSV-1 helicase-primase activity. The reaction mixtures (80 μL each) contained 40 mM 4-(2-hydroxyethyl)-1-piperazineethanesulfonic acid (HEPES, pH 7.5), 10% (v/v) glycerol, 5.5 mM MgCl2, 1 mM DL-dithiothreitol (DTT), 50 μg/mL acetylated bovine serum albumin, 3.3% (v/v) DMSO, 4 mM ATP, 25 μM single-stranded M13 DNA hybridized to double-tailed 68-mer oligonucleotide and 3 μg/mL HSV-1 helicase-primase. After incubation for 20 min at 34°, formation of inorganic phosphate from hydrolysis of ATP was monitored spectrophotometrically at 650 nm using acidic ammonium molybdate/malachite green reagent, P. A. Lanzetta et al., Anal. Biochem. 1979, 100, 95. DNA-dependent ATPase activity was calculated from the net absorbance change in the presence and absence of inhibition.

HSV-1 strain F or KOS = assay: Inhibition of herpes simplex virus (HSV-1) replication in cell culture (BHK-21 cells, glycoprotein C ELISA); assay type: cell-based
Method: B) Inhibition of Herpes Simplex Virus (HSV-1) Replication in Cell Culture
BHK-21 cells clone 13 (ATCC CCL10) were incubated for two days in 850 cm^2 roller bottles (2×10^7 cells/bottle) with A-MEM medium (Gibco Canada Inc., Burlington, Ontario, Canada) supplemented with 8% (v/v) fetal bovine serum (FBS, Gibco Canada, Inc.). The cells were trypsinized and then 3,000 cells in 100 μL of fresh medium were transferred into each well of a 96-well microtiter plate. The cells were incubated at […] for a period of 3 days to reach a density of 50,000 cells per well. The cells were washed twice with 100 μL of α-MEM supplemented with 2% heat inactivated FBS and incubated for 1-2 hours in 100 μL of the same medium.
Thereafter, the cells were infected with HSV-1 strain F or KOS (multiplicity of infection =0.05 PFU/cell) in 50 μL of α-MEM supplemented with 2% heat inactivated FBS. Following one hour of virus absorption at 37°, the medium was removed and the cells were washed with α-MEM supplemented with 2% heat inactivated FBS (2×100 μL). The cells were incubated with or without 100 μL of the appropriate concentration of test reagent in α-MEM medium supplemented with 2% heat inactivated FBS. After 24 hours of incubation at 37°, the extent of viral replication was determined by an ELISA assay; for instance, the following assay that detects the late glycoprotein C of HSV-1.
Cells were fixed in the microtiter plate with 100 μL of 0.063% glutaraldehyde in phosphate buffered saline for 30 min at room temperature. The microtiter plate was then washed once with casein blocking solution and blocked with 200 μL of the same solution for one hour at room temperature. Thereafter, 100 μL of mAb C11 recognizing the glycoprotein C of HSV-1 (see E. Trybala et al., Journal of General Virology, 1994, 75, 743) was added to each well for two hours at room temperature. The plate was washed three times with phosphate buffered saline containing 0.05% polyoxyethylene (20) sorbitan monooleate. The cells were incubated with 100 μL of sheep anti-mouse IgG horseradish peroxidase for one hour at room temperature in the dark.
The plate was washed three times with 200 μL of the above-noted phosphate buffer saline preparation, and then once with 0.1 M sodium citrate (pH 4.5). Thereafter, 100 μL of orthophenylenediamine dihydrochloride (OPD, Gibco, Canada Inc.) was added to each well. The plate was agitated on a microplate shaker for 30 min in the dark. Color development was monitored at 450 nm using a microplate spectrophotometer.
SAS was used to calculate % inhibition of viral replication and to generate EC50 values.

[1] = Human alphaherpesvirus 1, BHK-21, Group 1 Table 1 entries

T1 sequence (P10192 whole entry): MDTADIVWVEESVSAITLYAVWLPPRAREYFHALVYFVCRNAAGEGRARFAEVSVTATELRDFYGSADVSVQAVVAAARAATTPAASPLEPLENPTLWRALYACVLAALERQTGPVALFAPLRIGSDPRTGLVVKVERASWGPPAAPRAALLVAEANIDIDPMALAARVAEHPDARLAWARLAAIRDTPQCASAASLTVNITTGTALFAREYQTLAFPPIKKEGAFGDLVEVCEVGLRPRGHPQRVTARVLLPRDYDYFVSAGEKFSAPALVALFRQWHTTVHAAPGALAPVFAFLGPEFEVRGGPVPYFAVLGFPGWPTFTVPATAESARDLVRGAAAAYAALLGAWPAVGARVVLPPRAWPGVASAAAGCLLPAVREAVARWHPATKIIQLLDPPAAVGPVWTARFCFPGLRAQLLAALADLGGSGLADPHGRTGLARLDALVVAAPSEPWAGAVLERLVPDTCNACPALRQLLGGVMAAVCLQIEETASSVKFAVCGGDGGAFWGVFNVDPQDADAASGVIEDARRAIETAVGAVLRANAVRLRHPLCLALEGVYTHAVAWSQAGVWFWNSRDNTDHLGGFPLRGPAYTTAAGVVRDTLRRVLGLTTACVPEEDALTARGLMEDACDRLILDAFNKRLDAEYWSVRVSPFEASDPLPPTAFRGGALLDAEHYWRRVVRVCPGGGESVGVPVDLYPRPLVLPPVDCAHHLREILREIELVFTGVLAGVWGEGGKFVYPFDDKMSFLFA
T1 sequence (P10236 whole entry): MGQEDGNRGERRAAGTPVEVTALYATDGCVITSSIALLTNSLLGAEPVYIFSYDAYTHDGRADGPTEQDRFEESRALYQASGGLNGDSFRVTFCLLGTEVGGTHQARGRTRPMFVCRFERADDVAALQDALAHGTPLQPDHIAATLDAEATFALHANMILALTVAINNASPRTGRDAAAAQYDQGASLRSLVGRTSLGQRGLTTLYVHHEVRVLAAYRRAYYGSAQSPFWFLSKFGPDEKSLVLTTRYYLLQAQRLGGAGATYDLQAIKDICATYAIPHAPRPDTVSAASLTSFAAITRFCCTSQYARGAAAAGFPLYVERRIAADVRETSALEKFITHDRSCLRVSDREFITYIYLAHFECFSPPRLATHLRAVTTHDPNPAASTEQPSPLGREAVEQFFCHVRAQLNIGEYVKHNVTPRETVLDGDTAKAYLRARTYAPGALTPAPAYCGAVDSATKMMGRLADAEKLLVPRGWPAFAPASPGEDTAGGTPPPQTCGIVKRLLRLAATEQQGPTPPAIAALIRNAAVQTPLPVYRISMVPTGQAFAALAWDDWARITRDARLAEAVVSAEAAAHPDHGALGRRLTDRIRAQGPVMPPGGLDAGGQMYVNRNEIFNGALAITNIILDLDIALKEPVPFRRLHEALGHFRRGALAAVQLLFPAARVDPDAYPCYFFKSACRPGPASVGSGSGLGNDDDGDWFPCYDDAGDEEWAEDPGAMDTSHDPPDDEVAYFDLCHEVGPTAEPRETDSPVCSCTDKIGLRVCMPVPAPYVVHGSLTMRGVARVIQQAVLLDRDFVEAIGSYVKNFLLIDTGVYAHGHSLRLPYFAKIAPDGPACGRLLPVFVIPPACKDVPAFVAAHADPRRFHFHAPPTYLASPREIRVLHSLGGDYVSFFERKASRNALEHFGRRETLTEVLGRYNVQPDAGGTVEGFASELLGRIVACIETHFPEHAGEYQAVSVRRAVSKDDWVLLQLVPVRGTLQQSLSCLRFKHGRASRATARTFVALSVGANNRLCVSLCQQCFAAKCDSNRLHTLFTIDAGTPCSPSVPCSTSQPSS
T1 sequence (P10189 whole entry): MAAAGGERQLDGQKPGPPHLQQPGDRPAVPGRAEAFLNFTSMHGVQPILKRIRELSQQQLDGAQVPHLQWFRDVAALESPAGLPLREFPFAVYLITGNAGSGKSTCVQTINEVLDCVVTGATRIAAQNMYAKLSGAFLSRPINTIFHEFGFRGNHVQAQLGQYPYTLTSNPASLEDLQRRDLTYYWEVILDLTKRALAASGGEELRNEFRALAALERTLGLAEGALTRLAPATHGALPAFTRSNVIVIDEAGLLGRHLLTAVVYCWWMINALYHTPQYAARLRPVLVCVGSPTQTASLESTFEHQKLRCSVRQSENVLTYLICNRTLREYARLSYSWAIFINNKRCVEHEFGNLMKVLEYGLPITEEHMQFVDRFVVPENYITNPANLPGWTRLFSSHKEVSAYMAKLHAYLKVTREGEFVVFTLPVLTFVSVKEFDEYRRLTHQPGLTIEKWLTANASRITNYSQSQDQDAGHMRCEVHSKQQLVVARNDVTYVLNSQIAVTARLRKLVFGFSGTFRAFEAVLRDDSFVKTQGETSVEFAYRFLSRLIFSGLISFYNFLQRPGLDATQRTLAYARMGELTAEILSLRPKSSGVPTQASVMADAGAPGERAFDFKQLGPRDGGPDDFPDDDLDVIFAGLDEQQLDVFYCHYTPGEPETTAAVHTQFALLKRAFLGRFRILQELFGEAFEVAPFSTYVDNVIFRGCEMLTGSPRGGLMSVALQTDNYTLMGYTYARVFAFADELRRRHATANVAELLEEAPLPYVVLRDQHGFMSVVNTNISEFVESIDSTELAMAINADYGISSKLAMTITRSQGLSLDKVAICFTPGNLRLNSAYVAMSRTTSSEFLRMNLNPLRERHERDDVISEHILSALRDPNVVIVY

In the case of `Nc1nc(-c2ccc(NC(=O)CNCc3cccc(F)c3)cc2)cs1` [Example 9], the IC50 (HSV-1 helicase-primase; Group 1 Table 1 entries) is reported as roughly 5000 nM.

With `Nc1nc(-c2ccc(NC(=O)CN(Cc3ccccc3)C(=O)c3cscn3)cc2)cs1` [Example 170] the EC50 (HSV-1 strain F or KOS; [1]) was 1500 nM and the IC50 (HSV-1 helicase-primase; Group 1 Table 1 entries) was 700 nM.

`CNc1nc(-c2ccc(NC(=O)CNCc3ccccc3)cc2)cs1` [Example 7] was tested, and the EC50 (HSV-1 strain F or KOS; Human alphaherpesvirus 1, BHK-21, Group 1 Table 3 entries) was 4100 nM.

`COc1ccc(CN(CC(=O)Nc2ccc(-c3csc(N)n3)cc2)C(=O)c2ccncc2)cc1` [Example 150] gave an EC50 (HSV-1 strain F or KOS; [1]) of 120 nM and an IC50 (HSV-1 helicase-primase; Group 1 Table 1 entries) of 2000 nM.

In the case of `Nc1nc(-c2ccc(NC(=O)CN(CC3CCCCC3)C(=O)c3ccncc3)cc2)cs1` [Example 57], the EC50 (HSV-1 strain F or KOS; [1]) is reported as 950 nM.

`Nc1nc(-c2ccc(NC(=O)CN(CCc3cscn3)C(=O)c3ccncc3)cc2)cs1` [Example 164] showed an EC50 (HSV-1 strain F or KOS; [1]) of 61 nM and an IC50 (HSV-1 helicase-primase; Group 1 Table 1 entries) of 3000 nM.

For `Nc1nc(-c2ccc(NC(=O)CN(Cc3c(F)cccc3F)C(=O)c3ccncc3)cc2)cs1` [Example 153], the EC50 (HSV-1 strain F or KOS; [1]) was 190 nM and the IC50 (HSV-1 helicase-primase; Group 1 Table 1 entries) was 1900 nM.

With `Nc1nc(-c2ccc(NC(=O)CN(CC3CCCCC3)C(=O)CC3CCCC3)cc2)cs1` [Example 75] the EC50 (HSV-1 strain F or KOS; [1]) was 240 nM.

`COc1ccccc1CN(CC(=O)Nc1ccc(-c2csc(N)n2)cc1)C(=O)c1ccncc1` [Example 148] gave an EC50 (HSV-1 strain F or KOS; [1]) of 25 nM and an IC50 (HSV-1 helicase-primase; Group 1 Table 1 entries) of 380 nM.

Molecule `Cc1cc(C(=O)N(CC(=O)Nc2ccc(-c3csc(N)n3)cc2)Cc2ccccc2)cc(C)n1` [Example 168] has an EC50 (HSV-1 strain F or KOS; [1]) of 450 nM and an IC50 (HSV-1 helicase-primase; Group 1 Table 1 entries) of 2900 nM.

`Nc1nc(-c2ccc(NC(=O)CN(CCc3ccncc3)C(=O)c3ccncc3)cc2)cs1` [Example 174] was tested, and the EC50 (HSV-1 strain F or KOS; [1]) was 6600 nM and the IC50 (HSV-1 helicase-primase; Group 1 Table 1 entries) was 9200 nM.

`Cc1ccccc1CN(CC(=O)Nc1ccc(-c2csc(N)n2)cc1)C(=O)c1ccncc1` [Example 102] showed an EC50 (HSV-1 strain F or KOS; [1]) of 11 nM.

In the case of `Nc1nc(-c2ccc(NC(=O)CN(Cc3ccccc3F)Cc3ccccc3F)cc2)cs1` [Example 17], the EC50 (HSV-1 strain F or KOS; [1]) is reported as 4000 nM and the IC50 (HSV-1 helicase-primase; Group 1 Table 1 entries) is reported as 1800 nM.

In the case of `Nc1nc(-c2ccc(NC(=O)[C@H](Cc3ccccc3)NC(=O)OCc3ccccc3)cc2)cs1` [Example 23], the EC50 (HSV-1 strain F or KOS; Human alphaherpesvirus 1, BHK-21, Group 1 Table 5 entries) is reported as 94 nM and the IC50 (HSV-1 helicase-primase; Group 1 Table 5 entries) is reported as 600 nM.

Molecule `Nc1nc(-c2ccc(NC(=O)CN(Cc3ccc(Cl)cc3)C(=O)CC3CCCCC3)cc2)cs1` [Example 69] has an EC50 (HSV-1 strain F or KOS; [1]) of 180 nM.

Work on `Nc1nc(-c2ccc(NC(=O)CN(Cc3ccccc3)C(=O)c3ccncn3)cc2)cs1` [Example 169] yielded an EC50 (HSV-1 strain F or KOS; [1]) of 150 nM and an IC50 (HSV-1 helicase-primase; Group 1 Table 1 entries) of 1400 nM.

With `Nc1nc(-c2ccc(NC(=O)CN(CCc3ccccc3)C(=O)C3CCCCC3)cc2)cs1` [Example 68] the EC50 (HSV-1 strain F or KOS; [1]) was 50 nM.

With `Nc1nc(-c2ccc(NC(=O)CN(Cc3ccc(F)cc3)C(=O)C3CCCCC3)cc2)cs1` [Example 83] the EC50 (HSV-1 strain F or KOS; [1]) was 6 nM.

Molecule `CC(C)COC(=O)N(CC(=O)Nc1ccc(-c2csc(N)n2)cc1)Cc1ccccc1` [Example 86] has an EC50 (HSV-1 strain F or KOS; [1]) of 88 nM.

In the case of `CC(C)(C)NC(=O)N(CC(=O)Nc1ccc(-c2csc(N)n2)cc1)Cc1ccccc1` [Example 92], the EC50 (HSV-1 strain F or KOS; [1]) is reported as 34 nM.

For `CC(C)(C)OC(=O)N1CCC(C(=O)N(CC(=O)Nc2ccc(-c3csc(N)n3)cc2)CC2CCCCC2)CC1` [Example 61], the EC50 (HSV-1 strain F or KOS; [1]) was 1600 nM.

In the case of `CC(C)CN(CC(=O)Nc1ccc(-c2csc(N)n2)cc1)C(=O)C1CCCCC1` [Example 81], the EC50 (HSV-1 strain F or KOS; [1]) is reported as 180 nM.

Molecule `Nc1nc(-c2ccc(NC(=O)CN(Cc3ccccc3)C(=O)N3CCOCC3)cc2)cs1` [Example 95] has an EC50 (HSV-1 strain F or KOS; [1]) of 37 nM.

For `Nc1nc(-c2ccc(NC(=O)CN(Cc3ccccc3)S(=O)(=O)N3CCOCC3)cc2)cs1` [Example 96], the EC50 (HSV-1 strain F or KOS; [1]) was 120 nM.

`CC(C)(C)OC(=O)N(CC(=O)Nc1ccc(-c2csc(N)n2)cc1)CC1CCCCC1` [Example 100] was tested, and the EC50 (HSV-1 strain F or KOS; [1]) was 850 nM.

Molecule `C[C@@H](c1ccccc1)N(CC(=O)Nc1ccc(-c2csc(N)n2)cc1)C(=O)NC(C)(C)C` [Example 105] has an EC50 (HSV-1 strain F or KOS; [1]) of 290 nM.

`[N-]=[N+]=Nc1ccc(C(=O)N(CC(=O)Nc2ccc(-c3csc(N)n3)cc2)Cc2ccc(Cl)cc2)cc1` [Example 65] was tested, and the IC50 (HSV-1 helicase-primase; Group 1 Table 1 entries) was 840 nM.

For `[N-]=[N+]=Nc1ccc(C(=O)N(CC(=O)Nc2ccc(-c3csc(N)n3)cc2)Cc2ccncc2)cc1` [Example 78], the EC50 (HSV-1 strain F or KOS; [1]) was 180 nM.

`Nc1nc(-c2ccc(NC(=O)CN(Cc3ccc(Cl)cc3)C(=O)c3ccncc3)cc2)cs1` [Example 55] was tested, and the EC50 (HSV-1 strain F or KOS; [1]) was 95 nM.

`CN(C(=O)N(CC(=O)Nc1ccc(-c2csc(N)n2)cc1)Cc1ccccc1)C(C)(C)C` [Example 94] gave an EC50 (HSV-1 strain F or KOS; [1]) of 65 nM.

Reference: patent publication US6288091A, “Antiherpes virus compounds and methods for their preparation and use” (Boehringer Ingelheim Ltd., priority 1999, dated 2001)
